Test results taken from article PMC8012336, “An automated and high-throughput-screening compatible pluripotent stem cell-based test platform for developmental and reproductive toxicity assessment of small molecule compounds” (Cell Biology and Toxicology, 2020).
Converted amounts (≈) assume the structure as drawn.

What was measured:
[1] = Automated CellTiter-Glo luminescent cell viability (cytotoxicity) assay, 5 d; conditions: mouse
Experimental: The CellTiter-Glo® luminescent cell viability assay (Promega, Cat. No. G7573) was automated in 96-well format on the lab automation platform Fluent® (Tecan, Männedorf, Switzerland). The procedure allowed the testing of six compounds in mESC-D3 and NIH/3T3 cells in parallel. On the first day, PBS was dispensed into the peripheral wells of the assay plates (200 μl/well) using the Multiple Channel Arm (MCA). Mouse ES-D3 and NIH/3T3 cells were plated (50 μl/well, 1 × 10^4 cells/ml)) using the Flexible Channel Arm (FCA) and transported into the Cytomat™ 10 (Thermo Fisher Scientific) for incubation using the Robotic Gripper Arm (RGA). A 7-point dilution series of the test compounds and control solutions were prepared in PBS or DMSO (Carl Roth, Cat. No. HN47.1) under the laminar flow, transferred to a 96-well 0.5-ml Masterblock plate (Greiner bio-one, Cat. No. 786261) and placed on the worktable. On the Fluent the compounds were transferred to a 96-well 2-ml Masterblock plate (Greiner bio-one, Cat. No. 780271) and further diluted in growth media using the FCA. Two hours after cell plating compounds and controls were transferred to the assay plate with the FCA (150 μl/well) and transported back in the Cytomat 10. On day three of the assay, the media was exchanged using the MCA: old media was aspirated and dispensed into a 96-deep-well plate (“waste”), freshly prepared compound, and control solution was dispensed into the assay plate. After two more days of incubation, the cell viability was determined using the CellTiter-Glo assay. The assay plates were transported from the Cytomat 10 to the Carousel (Tecan) to adapt to room temperature. After 25 min the cell supernatant was removed partially (80 μl/well) and CellTiter-Glo reagent was dispensed (50 μl/well). The assay plate was placed on a shaker for 1 min and afterward incubated 25 min in the Carousel before the Luminescence signal was detected on the Infinite M1000 Pro plate reader (Tecan).
(§1) Toxicity data from the MTT and CellTiter-Glo Assay was normalized against the vehicle control (100% viability) and plotted against the logarithmic compound concentration.

[2] = Manual MTT cell viability assay, 7 d; assay type: cell-based, mouse; conditions: mouse, manual, in brackets the two individual experiments
Experimental: (§2) The MTT cell viability assay was performed as described (Seiler and Spielmann [2011]) with modifications. In brief, 96-well cell culture plates were coated with gelatin (0.1%) before plating mESC-D3. All peripheral wells of the assay plate were filled with 200 μl growth media (“blank”). Afterward, NIH/3T3 and mESC-D3 were plated in growth media (1 × 10^4 cells/ml, 50 μl/well). […] Vehicle (PBS) and positive control (5-fluorouracil) wells were also included on all assay plates. Three and 5 days after seeding the cell supernatant was replaced by freshly prepared compound solution (200 μl/well). Seven days after seeding the cell viability was detected. Therefore, the cell supernatant was aspirated from all wells, MTT solution (5 mg/ml) was added (20 μl/well) and the assay plate was incubated for 2 h at 37 °C and 5% CO2 in a humidified atmosphere. Afterward, all liquid was removed from the wells and MTT desorb solution (0.7% SDS in 2-propanol (Carl Roth, Cat. No. 9866.5), pre-warmed to 37 °C) was dispensed (130 μl/well). The assay plate was placed on a shaker for 15 min. Remaining precipitates were suspended by pipetting up and down with a multichannel pipette before measuring the absorption at 570 nm on a microtiter plate reader using 630 nm as a reference wavelength.
as §1

[3] = test system: NIH/3T3; parameters: method as in Scholz et al. [1999]; conditions: ZEBET value, 7 d result; ref Scholz et al. [1999]; cited from earlier work
[4] = test system: mESC-D3; parameters: method as in Scholz et al. [1999]; conditions: ZEBET value, 7 d result; ref Scholz et al. [1999]; cited from earlier work
[5] = test system: mESC-D3 and NIH/3T3 cells; conditions: manual murine EST assay; prediction model of Seiler and Spielmann 2011
[6] = Manual CellTiter-Glo luminescent cell viability assay (7 d or 5 d); assay type: cell-based, mouse; conditions: mouse, in brackets the two individual experiments
Experimental: 96-well cell culture plates were coated with gelatin (0.1%) before plating mESC-D3. All peripheral wells of the assay plate were filled with 200 μl growth media. In order to assess compound toxicity on mESC-D3 and NIH/3T3 cells, cell suspensions of NIH/3T3, and mESC-D3 were prepared in growth media (1 × 10^4 cells/ml) and were transferred to all remaining wells (50 μl/well). A 7-point dilution series in growth media was prepared for each test compound and was transferred to the assay plate 2 h after cell seeding (150 μl/well). Afterward, the cells were incubated in a humidified atmosphere at 37 °C and 5% CO2. Three and 5 days after seeding the cell supernatant was replaced by freshly prepared compound solution (200 μl/well). […] The assay plate was placed on a shaker for 1 min and after another 10 min incubation at room temperature in the dark the luminescence signal was detected on a plate reader.
as §1

[7] = Manual human EST cytotoxicity assay, CellTiter-Glo, 5 d; conditions: human
Experimental: (§3) The cytotoxicity assessment with a reduced assay time of 5 days combined with either NADH- or ATP-based detection was also carried out with human induced pluripotent stem cells (hiPSCs). […] Furthermore, differences in the cytotoxicity effects between the hiPSCs and HDFfs were more pronounced than in the mouse cells. Similar to the cytotoxicity-based assay the overall variance in the data is reduced when viability data was obtained by an ATP-based read-out.
96-well cell culture plates were coated with gelatin (0.1%) before plating mESC-D3. All peripheral wells of the assay plate were filled with 200 μl growth media. In order to assess compound toxicity on mESC-D3 and NIH/3T3 cells, cell suspensions of NIH/3T3, and mESC-D3 were prepared in growth media (1 × 10^4 cells/ml) and were transferred to all remaining wells (50 μl/well). A 7-point dilution series in growth media was prepared for each test compound and was transferred to the assay plate 2 h after cell seeding (150 μl/well). Afterward, the cells were incubated in a humidified atmosphere at 37 °C and 5% CO2. Three and 5 days after seeding the cell supernatant was replaced by freshly prepared compound solution (200 μl/well). Seven days after seeding the assay plate was taken out of the incubator and located at room temperature for 10 min, before cell supernatant was aspirated (80 μl/well) and CellTiter-Glo® reagent was dispensed (50 μl/well). The assay plate was placed on a shaker for 1 min and after another 10 min incubation at room temperature in the dark the luminescence signal was detected on a plate reader.
(§4) Figure S1: Step-wise evolution of the cytotoxicity assay towards the use of human cell lines. Related to Figure 2. Cytotoxicity assays were carried out with two compound sets on hiPSC line ZIPi013-E and HDFf, from which they were derived. […] A) 5 day MTT assay and manual handling. B) As in A), but using CellTiter-Glo® viability assay. All points in the graph represent the mean of 6 individual data points, including the standard error.

[8] = test system: mESC-D3; parameters: method as in Scholz et al. [1999]; conditions: ZEBET value printed beside hanging drop differentiation result; ref Scholz et al. [1999]; cited from earlier work
[9] = Manual human EST cytotoxicity assay, MTT, 5 d; conditions: human
Experimental: as §3, §2, §4

[10] = test system: mESC-D3; assay: Conventional mouse ES-D3 differentiation assay in hanging drop format (petri dish; cardiomyocyte contraction, day 10); assay type: cell-based; conditions: manual; beating cardiomyocytes at day 10; in brackets the two individual experiments
Experimental: Separate Petri dishes were used for each concentration of test compound, untreated control, and solvent control. […] The EB suspension was incubated for 2 days. On day five of the assay, a fresh compound dilution series was prepared in media and transferred into 24-well cell culture plates (1 ml/well, Greiner bio-one, Cat. No. 662641). A separate 24-well plate was used for each compound concentration, untreated control, and solvent control (24 wells per condition). One EB was transferred from the Petri dish into each well of the 24-well plate. After further 5 days of incubation (= day 10 of the assay), cardiomyocyte contraction was determined in each well under the light microscope.

[11] = test system: mESC-D3; assay type: cell-based, mouse
Experimental: As an alternative to the morphological analysis at day 10, differentiation can be analyzed at day 7 of the assay by flow cytometry using the molecular flow EST (Buesen et al. [2009]). Previously, staining of cardiomyocytes was performed using an unconjugated primary monoclonal antibody directed against the sarcomeric MHC (clone MF20), followed by binding of a secondary biotin-conjugated goat anti-mouse IgG antibody which is then detected with the fluorochrome PE-SA (phycoerythrin-conjugated streptavidin) (Seiler and Spielmann [2011]). […] Of note, these experiments were performed in parallel with the same batch of spontaneously differentiated mESCs.
Embryoid bodies were formed in hanging drops (Petri dish) as already described. On day 5 of the assay, the EBs were transferred into a larger Petri dish and incubated for two more days at 37 °C, 5% CO2, and 95% humidity. Afterward, the EBs were dissociated using the Embryoid Body Dissociation Kit (Miltenyi Biotec, Cat. No. 130-096-348). EBs from two Petri dishes were harvested in one 15 ml tube and washed once with 10 ml PBS. The supernatant was discarded after centrifugation and a pre-warmed enzyme mix was added. The EB/enzyme mix was incubated for 10 min at 37 °C, dissociated for 1 min with a 1000 μl pipette, incubated for 5 min and mechanically dissociated again for 1 min. After the addition of 3 ml PBS, the cell suspension was passed through a 70-μm filter into a new 15-ml tube. The filter was then washed with 3 ml PBS and discarded afterward. The cell suspension was centrifuged for 5 min at 300 rpm. The supernatant was discarded afterward, cells were suspended in PBS and counted. For viability staining, 10^6 cells were suspended in 100 μl staining reagent (LIVE/DEAD™ Fixable Green Dead Stain Kit, Life Technologies, Cat. No. L34969), incubated for 30 min at 4 °C and washed with 1 ml PBS. For fixation, cells were suspended in 100 μl fixation buffer (BioLegend, Cat. No. 420801) and incubated 20 min at room temperature. For the intracellular staining, cells were washed twice with 1 ml permeabilization buffer (BioLegend, Cat. No. 421002) and suspended in 50 μl permeabilization buffer supplemented with 50 μl of pre-diluted (1:5) antibody (mouse IgG2B anti-human Myosin Heavy Chain APC-conjugated, mouse IgG2B APC-conjugated isotype control, R&D Systems, Cat. No. IC4470A). After 1 h incubation at room temperature cells were washed twice with 1 ml permeabilization buffer and suspended in FACS buffer. Within 2–3 h samples were measured on an LSR II flow cytometer (Beckton Dickinson). Data analysis was done using FlowJo software (Version 10.0.8; Tree Star).

[12] = mESC-D3 cells (mouse embryonic stem cells)
[13] = NIH/3T3 cells, read-out: Cytotoxicity assay MTT, 7 d IC50 NIH/3T3
[14] = mESC-D3 cells, read-out: Cytotoxicity assay MTT, 7 d IC50 mESC-D3
[15] = NIH/3T3 cells, read-out: Cytotoxicity assay CTG, 5 d IC50 NIH/3T3
[16] = NIH/3T3 cells, read-out: Cytotoxicity assay CTG, 7 d IC50 NIH/ 3T3
[17] = mESC-D3 cells, read-out: Cytotoxicity assay CTG, 5 d IC50 mESC-D3
[18] = mESC-D3 cells, read-out: Cytotoxicity assay CTG, 7 d IC50 mESC-D3
[19] = HDFf (human dermal fibroblasts of fetal origin)

| SMILES | IC50 at 5 d ([1]; NIH/3T3 cells) | IC50 at 5 d [1, 12] | IC50 at 7 d [2, 13] | IC50 at 7 d [2, 14] | IC50 NIH/3T3 (ZEBET) [3] | IC50 mESC-D3 (ZEBET) [4] | Compound classification [5] | IC50 at 5 d [6, 15] | IC50 at 7 d [6, 16] | IC50 at 5 d [6, 17] | IC50 at 7 d [6, 18] | IC50 at 5 d [7, 19] | IC50 at 5 d ([7]; hiPSC line ZIPi013-E) | ID50 mESC-D3 (ZEBET) [8] | IC50 at 5 d [9, 19] | IC50 at 5 d ([9]; hiPSC line ZIPi013-E) | Differentiation assay in hanging drop (petri dish) ID50 mESC-D3 [10] | ID50 FACS (MHC-positive cells) ([11]; flow cytometry, day 7) | MHC-positive cells ([11]; treated with 10 μg/ml, untreated 31% (hydroxyurea), 26% (fumonisine B1)) |
| --- | --- | --- | --- | --- | --- | --- | --- | --- | --- | --- | --- | --- | --- | --- | --- | --- | --- | --- | --- |
| O=c1[nH]cc(F)c(=O)[nH]1 [5-Fluorouracil, 5-fluorouracil] | 0.11 µg/mL (≈ 0.846 µM) | 0.0627 µg/mL (≈ 0.482 µM) | 0.116 µg/mL (≈ 0.892 µM) | 0.0395 µg/mL (≈ 0.304 µM) | 0.17 µg/mL (≈ 1.31 µM) | 0.103 µg/mL (≈ 0.792 µM) | strong embryotoxicity | 0.0958 µg/mL (≈ 0.736 µM) | 0.128 µg/mL (≈ 0.984 µM) | 0.0493 µg/mL (≈ 0.379 µM) | 0.0681 µg/mL (≈ 0.524 µM) | 0.186 µg/mL (≈ 1.43 µM) | 0.0166 µg/mL (≈ 0.128 µM) | 0.0289 µg/mL (≈ 0.222 µM) | 0.195 µg/mL (≈ 1.5 µM) | 0.223 µg/mL (≈ 1.72 µM) |  |  |  |
| C[C@@H]1C[C@H]2[C@@H]3CCC4=CC(=O)C=C[C@]4(C)[C@@]3(F)[C@@H](O)C[C@]2(C)[C@@]1(O)C(=O)CO [Dexamethasone, dexamethasone] | > 50 µg/mL | 18.7 µg/mL (≈ 47.6 µM) | 49.2 µg/mL (≈ 125 µM) | 23.5 µg/mL (≈ 59.9 µM) | 26 µg/mL (≈ 66.2 µM) | 23 µg/mL (≈ 58.6 µM) | weak embryotoxicity | 34.8 µg/mL (≈ 88.7 µM) | 35.2 µg/mL (≈ 89.7 µM) | 15.7 µg/mL (≈ 40 µM) | 20.8 µg/mL (≈ 53 µM) |  |  | 18.3 µg/mL (≈ 46.6 µM) |  |  | 25.7 (29.1; 22.3) µg/ml |  |  |
| Cn1c(=O)c2c(ncn2C)n(C)c1=O [Caffeine, caffeine] |  | 138 µg/mL (≈ 711 µM) |  | 152 µg/mL (≈ 783 µM) |  |  |  |  |  | 172 µg/mL (≈ 886 µM) | 119 µg/mL (≈ 613 µM) | 412 µg/mL (≈ 2120 µM) | 43.6 µg/mL (≈ 225 µM) | 185 µg/mL (≈ 953 µM) | 358 µg/mL (≈ 1850 µM) | 13.3 µg/mL (≈ 68.3 µM) | 130 (130; > 200) µg/ml |  |  |
| CCCC[C@@H](C)[C@@H](OC(=O)C[C@@H](CC(=O)O)C(=O)O)[C@H](C[C@@H](C)C[C@H](O)CCCC[C@@H](O)C[C@H](O)[C@H](C)N)OC(=O)C[C@@H](CC(=O)O)C(=O)O [Fumonisin, fumonisine B1] |  |  |  |  |  |  |  |  |  |  |  |  |  |  |  |  |  | 2.26 µg/mL (≈ 3.13 µM) | 3% |
